Measured values reported in PubChem BioAssay (NCI).
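All cell lines were grown in 96-well plates and treated with compound for 48 hours. TGI is the concentration that stops growth completely.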

Columns and labels:
Assay in all cases: DTP human tumour cell line panel, 48 h
UACC-62 melanoma = test system: UACC-62 melanoma
MOLT-4 leukemia = test system: MOLT-4 leukemia
M14 melanoma = test system: M14 melanoma
SK-OV-3 ovarian = test system: SK-OV-3 ovarian
RPMI-8226 leukemia = test system: RPMI-8226 leukemia
MDA-N = test system: MDA-N
SF-539 CNS = test system: SF-539 CNS
SF-295 CNS = test system: SF-295 CNS
COLO 205 colon = test system: COLO 205 colon
U251 CNS = test system: U251 CNS
SF-268 CNS = test system: SF-268 CNS
UO-31 renal = test system: UO-31 renal
IGROV1 ovarian = test system: IGROV1 ovarian
NCI-H460 lung = test system: NCI-H460 lung
A549 NSCLC = test system: A549 NSCLC
HOP-62 NSCLC = test system: HOP-62 NSCLC
KM12 colon = test system: KM12 colon
ACHN renal = test system: ACHN renal
HT29 colon = test system: HT29 colon
SK-MEL-5 melanoma = test system: SK-MEL-5 melanoma
OVCAR-3 ovarian = test system: OVCAR-3 ovarian
T-47D breast = test system: T-47D breast
HCC-2998 colon = test system: HCC-2998 colon
PC-3 prostate = test system: PC-3 prostate
SK-MEL-2 melanoma = test system: SK-MEL-2 melanoma
SNB-19 CNS = test system: SNB-19 CNS
NCI-H226 lung = test system: NCI-H226 lung
NCI-H23 lung = test system: NCI-H23 lung
DU-145 prostate = test system: DU-145 prostate
MALME-3M melanoma = test system: MALME-3M melanoma
HCT-116 colon = test system: HCT-116 colon
SNB-75 CNS = test system: SNB-75 CNS
HL-60(TB) leukemia = test system: HL-60(TB) leukemia
OVCAR-4 ovarian = test system: OVCAR-4 ovarian
HCT-15 colon = test system: HCT-15 colon
CCRF-CEM leukemia = test system: CCRF-CEM leukemia
NCI/ADR-RES ovarian = test system: NCI/ADR-RES ovarian
SN12C renal = test system: SN12C renal
EKVX NSCLC = test system: EKVX NSCLC
MDA-MB-435 = test system: MDA-MB-435
786-0 renal = test system: 786-0 renal
NCI-H522 lung = test system: NCI-H522 lung
A498 renal = test system: A498 renal
MDA-MB-231 breast = test system: MDA-MB-231 breast
SW-620 colon = test system: SW-620 colon
BT-549 breast = test system: BT-549 breast
K-562 leukemia = test system: K-562 leukemia
HOP-92 NSCLC = test system: HOP-92 NSCLC
OVCAR-8 ovarian = test system: OVCAR-8 ovarian
HS 578T breast = test system: HS 578T breast
SK-MEL-28 melanoma = test system: SK-MEL-28 melanoma
RXF 393 renal = test system: RXF 393 renal
OVCAR-5 ovarian = test system: OVCAR-5 ovarian
MCF7 breast = test system: MCF7 breast
LOX IMVI melanoma = test system: LOX IMVI melanoma
CAKI-1 renal = test system: CAKI-1 renal
TK-10 renal = test system: TK-10 renal
UACC-257 melanoma = test system: UACC-257 melanoma

Nc1ccc2nc3ccc(=O)cc-3n(-c3ccccc3)c2c1
TGI (UACC-62 melanoma): > 100 µM | TGI (MOLT-4 leukemia): > 100 µM | TGI (M14 melanoma): > 100 µM | TGI (SK-OV-3 ovarian): > 100 µM | TGI (RPMI-8226 leukemia): > 100 µM | TGI (MDA-N): > 100 µM | TGI (SF-539 CNS): > 100 µM | TGI (SF-295 CNS): > 100 µM | TGI (COLO 205 colon): > 100 µM | TGI (U251 CNS): > 100 µM | TGI (SF-268 CNS): > 100 µM | TGI (UO-31 renal): > 100 µM | TGI (IGROV1 ovarian): > 100 µM | TGI (NCI-H460 lung): > 100 µM | TGI (A549 NSCLC): > 100 µM | TGI (HOP-62 NSCLC): > 100 µM | TGI (KM12 colon): > 100 µM | TGI (ACHN renal): > 100 µM | TGI (HT29 colon): > 100 µM | TGI (SK-MEL-5 melanoma): > 100 µM | TGI (OVCAR-3 ovarian): > 100 µM | TGI (T-47D breast): > 100 µM | TGI (HCC-2998 colon): > 100 µM | TGI (PC-3 prostate): > 100 µM | TGI (SK-MEL-2 melanoma): > 100 µM | TGI (SNB-19 CNS): > 100 µM | TGI (NCI-H226 lung): > 100 µM | TGI (NCI-H23 lung): > 100 µM | TGI (DU-145 prostate): > 100 µM | TGI (MALME-3M melanoma): > 100 µM | TGI (HCT-116 colon): > 100 µM | TGI (SNB-75 CNS): 92.4 µM | TGI (HL-60(TB) leukemia): > 100 µM | TGI (OVCAR-4 ovarian): > 100 µM | TGI (HCT-15 colon): > 100 µM | TGI (CCRF-CEM leukemia): > 100 µM | TGI (NCI/ADR-RES ovarian): > 100 µM | TGI (SN12C renal): > 100 µM | TGI (EKVX NSCLC): > 100 µM | TGI (MDA-MB-435): > 100 µM | TGI (786-0 renal): > 100 µM | TGI (NCI-H522 lung): > 100 µM | TGI (A498 renal): 85.7 µM | TGI (MDA-MB-231 breast): > 100 µM | TGI (SW-620 colon): > 100 µM | TGI (BT-549 breast): > 100 µM | TGI (K-562 leukemia): > 100 µM | TGI (HOP-92 NSCLC): > 100 µM | TGI (OVCAR-8 ovarian): > 100 µM | TGI (HS 578T breast): > 100 µM | TGI (SK-MEL-28 melanoma): > 100 µM | TGI (RXF 393 renal): > 100 µM | TGI (OVCAR-5 ovarian): > 100 µM | TGI (MCF7 breast): > 100 µM

N#CCCN(CCNc1ccccc1)C(=O)Nc1ccc(NC(=O)N(CCC#N)CCNc2ccccc2)cc1
TGI (UACC-62 melanoma): > 100 µM | TGI (MOLT-4 leukemia): > 100 µM | TGI (M14 melanoma): > 100 µM | TGI (SK-OV-3 ovarian): > 100 µM | TGI (RPMI-8226 leukemia): > 100 µM | TGI (MDA-N): > 100 µM | TGI (SF-539 CNS): > 100 µM | TGI (SF-295 CNS): > 100 µM | TGI (COLO 205 colon): > 100 µM | TGI (U251 CNS): > 100 µM | TGI (SF-268 CNS): > 79.9 µM | TGI (UO-31 renal): > 100 µM | TGI (NCI-H460 lung): > 100 µM | TGI (A549 NSCLC): > 100 µM | TGI (HOP-62 NSCLC): > 84.7 µM | TGI (KM12 colon): > 100 µM | TGI (ACHN renal): > 100 µM | TGI (HT29 colon): > 100 µM | TGI (SK-MEL-5 melanoma): > 100 µM | TGI (OVCAR-3 ovarian): > 100 µM | TGI (T-47D breast): > 100 µM | TGI (HCC-2998 colon): > 100 µM | TGI (LOX IMVI melanoma): > 100 µM | TGI (PC-3 prostate): > 100 µM | TGI (SK-MEL-2 melanoma): > 100 µM | TGI (SNB-19 CNS): > 100 µM | TGI (NCI-H226 lung): > 100 µM | TGI (NCI-H23 lung): > 100 µM | TGI (DU-145 prostate): > 100 µM | TGI (MALME-3M melanoma): > 100 µM | TGI (HCT-116 colon): > 100 µM | TGI (SNB-75 CNS): 72 µM | TGI (OVCAR-4 ovarian): > 31.6 µM | TGI (HCT-15 colon): > 100 µM | TGI (CAKI-1 renal): > 100 µM | TGI (NCI/ADR-RES ovarian): > 100 µM | TGI (SN12C renal): > 100 µM | TGI (EKVX NSCLC): > 100 µM | TGI (TK-10 renal): 98 µM | TGI (MDA-MB-435): > 100 µM | TGI (786-0 renal): > 100 µM | TGI (NCI-H522 lung): > 66.3 µM | TGI (A498 renal): > 100 µM | TGI (MDA-MB-231 breast): > 100 µM | TGI (SW-620 colon): > 100 µM | TGI (BT-549 breast): > 80.4 µM | TGI (K-562 leukemia): > 100 µM | TGI (HOP-92 NSCLC): > 81.5 µM | TGI (OVCAR-8 ovarian): > 100 µM | TGI (HS 578T breast): > 64.2 µM | TGI (SK-MEL-28 melanoma): > 100 µM | TGI (RXF 393 renal): > 83 µM | TGI (OVCAR-5 ovarian): > 100 µM | TGI (MCF7 breast): > 100 µM | TGI (UACC-257 melanoma): > 100 µM

CCCCCCCCNC(=O)C1=C(C)NC(C)=C(C(=O)NCCCCCCCC)C1
TGI (UACC-62 melanoma): > 100 µM | TGI (MOLT-4 leukemia): > 100 µM | TGI (M14 melanoma): > 100 µM | TGI (SK-OV-3 ovarian): > 100 µM | TGI (RPMI-8226 leukemia): > 100 µM | TGI (MDA-N): > 100 µM | TGI (SF-539 CNS): > 100 µM | TGI (SF-295 CNS): > 100 µM | TGI (COLO 205 colon): > 100 µM | TGI (U251 CNS): > 100 µM | TGI (SF-268 CNS): > 100 µM | TGI (UO-31 renal): > 100 µM | TGI (IGROV1 ovarian): > 100 µM | TGI (NCI-H460 lung): > 100 µM | TGI (A549 NSCLC): > 100 µM | TGI (HOP-62 NSCLC): > 100 µM | TGI (KM12 colon): > 100 µM | TGI (ACHN renal): > 100 µM | TGI (HT29 colon): > 100 µM | TGI (SK-MEL-5 melanoma): > 100 µM | TGI (OVCAR-3 ovarian): > 100 µM | TGI (T-47D breast): > 100 µM | TGI (HCC-2998 colon): > 100 µM | TGI (LOX IMVI melanoma): > 100 µM | TGI (PC-3 prostate): > 100 µM | TGI (SK-MEL-2 melanoma): > 100 µM | TGI (SNB-19 CNS): > 100 µM | TGI (NCI-H226 lung): > 100 µM | TGI (NCI-H23 lung): > 100 µM | TGI (DU-145 prostate): > 100 µM | TGI (HCT-116 colon): > 100 µM | TGI (SNB-75 CNS): > 100 µM | TGI (HL-60(TB) leukemia): > 100 µM | TGI (OVCAR-4 ovarian): > 100 µM | TGI (HCT-15 colon): > 100 µM | TGI (CAKI-1 renal): > 100 µM | TGI (CCRF-CEM leukemia): > 100 µM | TGI (NCI/ADR-RES ovarian): > 100 µM | TGI (SN12C renal): > 100 µM | TGI (EKVX NSCLC): > 100 µM | TGI (TK-10 renal): > 100 µM | TGI (MDA-MB-435): > 100 µM | TGI (786-0 renal): > 100 µM | TGI (NCI-H522 lung): > 100 µM | TGI (MDA-MB-231 breast): > 100 µM | TGI (SW-620 colon): > 100 µM | TGI (BT-549 breast): > 100 µM | TGI (K-562 leukemia): > 100 µM | TGI (HOP-92 NSCLC): > 100 µM | TGI (OVCAR-8 ovarian): > 100 µM | TGI (HS 578T breast): > 100 µM | TGI (RXF 393 renal): > 100 µM | TGI (OVCAR-5 ovarian): > 100 µM | TGI (MCF7 breast): > 100 µM | TGI (UACC-257 melanoma): > 100 µM
